Patent US8017612B2, “Piperazine compound and use thereof as a HCV polymerase inhibitor” (priority 2006, dated 2011)

Assays:
[1] = molecular target: T1, HCV polymerase (NS5B) type 1a (Hepatitis C virus genotype 1a, UniProt P26664); assay: Assay of enzyme (HCV polymerase) inhibitory activity, type 1a enzyme; assay type: biochemical, HCV type 1a (cloned from the blood of patients)
T1 construct: made in house; host or cells: Escherichia coli (by the 'similar method' of the 1b enzyme)
Outline: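 Patient-derived type 1a NS5B (C-terminal 47-aa deletion, His-tagged, E. coli-expressed) at 1.5 μg/ml was reacted with 5 μg/ml 3′UTR-containing substrate RNA, 50 μM ATP/GTP/CTP, 2 μM UTP plus [3H]UTP, pH 7.5, 25° C for 60 min. TCA-precipitated RNA radioactivity was counted; IC50 from ± compound.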

[2] = molecular target: T2, HCV polymerase (NS5B) type 1b (Hepatitis C virus genotype 1b, UniProt P26663); assay: Assay of enzyme (HCV polymerase) inhibitory activity, type 1b enzyme; assay type: biochemical, HCV BK strain (type 1b)
T2 construct: a region encoding NS5B (J Virol 1991 March, 65(3), 1105-13, 544 amino acids after deletion of 47 amino acids on the C-terminal); 6xHis (C); made in house; host or cells: Escherichia coli
Outline: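 NS5B from HCV BK strain (type 1b), C-terminal 47 aa deleted, C-terminal His6-tagged, E. coli-expressed, 0.5 μg/ml, with ~450 nt substrate RNA carrying the 3′ UTR (polyU, 3′X) at 5 μg/ml. Incubation 60 min at 25 °C with 50 μM ATP/GTP/CTP, 2 μM UTP plus [3H]UTP, pH 7.5 Tris.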

[3] = HCV polymerase inhibitory activity IC50, 1a, type 1a enzyme
[4] = HCV polymerase inhibitory activity IC50, 1b, type 1b enzyme
[5] = HCV polymerase inhibitory activity (IC50), 1a, type 1a enzyme 1.5 μg/ml, 25° C., 60 min
[6] = HCV polymerase inhibitory activity (IC50), 1b, type 1b enzyme 0.5 μg/ml, 25° C., 60 min

Row | Structure (SMILES) | IC50 [1, 3] | IC50 [2, 4] | IC50 [1, 5] | IC50 [2, 6]
1 | CCC(F)(F)c1ccc(CNC(=O)[C@H]2CN(c3cnc4cnc(C)nc4n3)CCN2S(=O)(=O)c2ccc(OC(F)(F)F)cc2)cc1 [Example 692, (R)-4-(2-methyl-pteridin-7-yl)-1-(4-trifluoromethoxy-benzenesulfonyl)-piperazine-2-carboxylic acid 4-(1,1-difluoro-propyl)-benzylamide] | < 100 nM | < 100 nM |  | 
2 | CCC(F)(F)c1ccc(CNC(=O)[C@H]2CN(C(=O)Cn3nnnc3N)CCN2S(=O)(=O)c2ccc(OC(F)(F)F)cc2)cc1 [Example 1097, (R)-4-[2-(5-amino-tetrazol-1-yl)-acetyl]-1-(4-trifluoromethoxy-benzenesulfonyl)-piperazine-2-carboxylic acid 4-(1,1-difluoro-propyl)-benzylamide] | 100 to 1000 nM | 100 to 1000 nM |  | 
3 | CC(C)(O)c1nc(N)c2sc(N3CCN(S(=O)(=O)c4ccc(OC(F)(F)F)cc4)[C@@H](C(=O)NCc4ccc(OC(F)(F)F)cc4)C3)nc2n1 [Example 1091, (R)-4-[7-amino-5-(1-hydroxy-1-methyl-ethyl)-thiazolo[4,5-d]pyrimidin-2-yl]-1-(4-trifluoromethoxy-benzenesulfonyl)-piperazine-2-carboxylic acid 4-trifluoromethoxy-benzylamide] | < 100 nM | < 100 nM |  | 
4 | CCC(F)(F)c1ccc(CNC(=O)[C@H]2CN(C(=O)Nc3nc(C(C)(C)O)cs3)CCN2S(=O)(=O)c2ccc(OC(F)(F)F)cc2)cc1 [Example 612, (R)-4-(4-trifluoromethoxy-benzenesulfonyl)-piperazine-1,3-dicarboxylic acid 3-[4-(1,1-difluoro-propyl)-benzylamide] 1-{[4-(1-hydroxy-1-methyl-ethyl)-thiazol-2-yl]-amide}] |  |  | > 1000 nM | 100 to 1000 nM
5 | O=C(NCc1ccc(OC(F)(F)F)cc1)[C@H]1CN(c2nc3cn[nH]c(=O)c3s2)CCN1S(=O)(=O)c1ccc(C(F)(F)F)cc1 [Example 877, (R)-4-(7-oxo-6,7-dihydro-thiazolo[4,5-d]pyridazin-2-yl)-1-(4-trifluoromethyl-benzenesulfonyl)-piperazine-2-carboxylic acid 4-trifluoromethoxy-benzylamide] | < 100 nM | < 100 nM |  | 
6 | O=C(NCc1ccc(OC(F)F)cc1)[C@H]1CN(c2nc3nc(C4CC4)ncc3s2)CCN1S(=O)(=O)c1ccc(OC(F)(F)F)cc1 [Example 1017, (R)-4-(5-cyclopropyl-thiazolo[4,5-d]pyrimidin-2-yl)-1-(4-trifluoromethoxy-benzenesulfonyl)-piperazine-2-carboxylic acid 4-difluoromethoxy-benzylamide] | < 100 nM | < 100 nM |  | 
7 | CC(=O)N1CCN(S(=O)(=O)c2ccc(OC(F)(F)F)cc2)[C@@H](C(=O)NCc2ccc(CCCO)cc2)C1 [Example 702, (R)-4-acetyl-1-(4-trifluoromethoxy-benzenesulfonyl)-piperazine-2-carboxylic acid 4-(3-hydroxy-propyl)-benzylamide] | > 1000 nM | > 1000 nM |  | 
8 | CC(=O)N1CCN(S(=O)(=O)c2ccc(C(C)C)cc2)[C@@H](C(=O)NCCc2ccc(C(=O)O)cc2)C1 [Example 393, 4-(2-{[(R)-4-acetyl-1-(4-isopropyl-benzenesulfonyl)-piperazine-2-carbonyl]-amino}-ethyl)-benzoic acid] |  |  | > 1000 nM | > 1000 nM
9 | N#Cc1cncc2ncc(N3CCN(S(=O)(=O)c4ccc(OC(F)(F)F)cc4)[C@@H](C(=O)NCc4ccc(OC(F)(F)F)cc4)C3)nc12 [Example 872, (R)-4-(8-cyano-pyrido[3,4-b]pyrazin-2-yl)-1-(4-trifluoromethoxy-benzenesulfonyl)-piperazine-2-carboxylic acid 4-trifluoromethoxy-benzylamide] | < 100 nM | < 100 nM |  | 
10 | CCC(F)(F)c1ccc(CNC(=O)[C@H]2CN(C(=O)Nc3ccnc(C(=O)NC4CC4)c3)CCN2S(=O)(=O)c2ccc(OC(F)(F)F)cc2)cc1 [Example 512, (R)-4-(4-trifluoromethoxy-benzenesulfonyl)-piperazine-1,3-dicarboxylic acid 1-[(2-cyclopropylcarbamoyl-pyridin-4-yl)-amide] 3-[4-(1,1-difluoro-propyl)-benzylamide]] |  |  | < 100 nM | < 100 nM
11 | CCc1cc(S(=O)(=O)N2CCN(C(C)=O)C[C@@H]2C(=O)NCc2ccc(C(C)C)cc2)ccc1OC [Example 236, (R)-4-acetyl-1-(3-ethyl-4-methoxy-benzenesulfonyl)-piperazine-2-carboxylic acid 4-isopropyl-benzylamide] |  |  | 100 to 1000 nM | 100 to 1000 nM
12 | CCCc1ccc(CNC(=O)[C@H]2CN(C(C)=O)CCN2S(=O)(=O)c2ccc(OC(F)(F)F)cc2)cc1O [Example 624, (R)-4-acetyl-1-(4-trifluoromethoxy-benzenesulfonyl)-piperazine-2-carboxylic acid 3-hydroxy-4-propyl-benzylamide] |  |  | > 1000 nM | 100 to 1000 nM
13 | CC(=O)N1CCN(S(=O)(=O)c2ccc(C(C)C)cc2)C(C(=O)NCc2ccccc2C(F)(F)F)C1 (centres unmarked) [Example 120, 4-acetyl-1-(4-isopropyl-benzenesulfonyl)-piperazine-2-carboxylic acid 2-trifluoromethyl-benzylamide] |  |  | > 1000 nM | > 1000 nM
14 | Cc1ncc2sc(N3CCN(S(=O)(=O)c4ccc(OC(F)(F)F)cc4)[C@@H](C(=O)NCc4ccc(OC(F)(F)F)cc4)C3)nc2n1 [Example 908, (R)-4-(5-methyl-thiazolo[4,5-d]pyrimidin-2-yl)-1-(4-trifluoromethoxy-benzenesulfonyl)-piperazine-2-carboxylic acid 4-trifluoromethoxy-benzylamide] | < 100 nM | < 100 nM |  | 
15 | CC(C)c1ccc(CNC(=O)[C@H]2CN(C(=O)NCCCC(=O)O)CCN2S(=O)(=O)c2ccc(C(F)(F)F)cc2)cc1 [Example 199, 4-{[(R)-3-(4-isopropyl-benzylcarbamoyl)-4-(4-trifluoromethyl-benzenesulfonyl)-piperazine-1-carbonyl]-amino}-butyric acid] |  |  | > 1000 nM | 100 to 1000 nM
16 | CC(C)(C)c1ccc(CNC(=O)[C@H]2CN(c3cnc4c(n3)NC(=O)OC4)CCN2S(=O)(=O)c2ccc(OC(F)(F)F)cc2)cc1 [Example 579, (R)-4-(2-oxo-1,4-dihydro-2H-pyrazino[2,3-d][1,3]oxazin-7-yl)-1-(4-trifluoromethoxy-benzenesulfonyl)-piperazine-2-carboxylic acid 4-tert-butyl-benzylamide] |  |  | < 100 nM | < 100 nM
17 | CCCc1ccc(CNC(=O)[C@H]2CN(c3nc(C)c(C(O)C(=O)OCC)s3)CCN2S(=O)(=O)c2ccc(OC(F)(F)F)cc2)cc1 (stereo partly drawn) [Example 856, hydroxy-{4-methyl-2-[(R)-3-(4-propyl-benzylcarbamoyl)-4-(4-trifluoromethoxy-benzenesulfonyl)-piperazin-1-yl]-thiazol-5-yl}-acetic acid ethyl ester] | 100 to 1000 nM | < 100 nM |  | 
18 | Cc1ncc2sc(N3CCN(S(=O)(=O)c4ccc(C(F)(F)F)cc4)[C@@H](C(=O)NCc4ccc(OC(F)F)cc4)C3)nc2n1 [Example 970, (R)-4-(5-methyl-thiazolo[4,5-d]pyrimidin-2-yl)-1-(4-trifluoromethyl-benzenesulfonyl)-piperazine-2-carboxylic acid 4-difluoromethoxy-benzylamide] | < 100 nM | < 100 nM |  | 
19 | O=C(NCc1ccc(OC(F)(F)F)cc1)[C@H]1CN(c2nc3nc(C4CC4)ncc3s2)CCN1S(=O)(=O)c1ccc(OC(F)(F)F)cc1F [Example 1110, (R)-4-(5-cyclopropyl-thiazolo[4,5-d]pyrimidin-2-yl)-1-(2-fluoro-4-trifluoromethoxy-benzenesulfonyl)-piperazine-2-carboxylic acid 4-trifluoromethoxy-benzylamide] | < 100 nM | < 100 nM |  | 
20 | CCC(F)(F)c1ccc(CNC(=O)[C@H]2CN(c3nc4nc[nH]c(=O)c4s3)CCN2S(=O)(=O)c2ccc(OC(F)(F)F)cc2)cc1 [Example 633, (R)-4-(7-oxo-6,7-dihydro-thiazolo[4,5-d]pyrimidin-2-yl)-1-(4-trifluoromethoxy-benzenesulfonyl)-piperazine-2-carboxylic acid 4-(1,1-difluoro-propyl)-benzylamide] |  |  | < 100 nM | < 100 nM
21 | CCCc1ccc(CNC(=O)[C@H]2CN(c3n[nH]c(=O)s3)CCN2S(=O)(=O)c2ccc(OC(F)(F)F)cc2)cc1 [Example 516, (R)-4-(5-oxo-4,5-dihydro-[1,3,4]thiadiazol-2-yl)-1-(4-trifluoromethoxy-benzenesulfonyl)-piperazine-2-carboxylic acid 4-propyl-benzylamide] |  |  | < 100 nM | < 100 nM
22 | CC(C)c1ccc(CNC(=O)[C@H]2CN(C(=O)Cn3cccn3)CCN2S(=O)(=O)c2ccc(C(F)(F)F)cc2)cc1 [Example 228, (R)-4-(2-pyrazol-1-yl-acetyl)-1-(4-trifluoromethyl-benzenesulfonyl)-piperazine-2-carboxylic acid 4-isopropyl-benzylamide] |  |  | 100 to 1000 nM | 100 to 1000 nM
